Assay results as given in ChEMBL document CHEMBL4359821, “Identify liver X receptor β modulator building blocks by developing a fluorescence polarization-based competition assay” (Eur J Med Chem, 2019).

Assays:
[1] = biological target: T1, Oxysterols receptor LXR-beta (Homo sapiens, UniProt P55055); assay: Binding affinity to recombinant human LXRbeta-LBD expressed in Escherichia coli BL21 (DE3) assessed as inhibitory constant incubated for 30 mins by fluorescence polarization binding assay
[2] = biological target: T1, Oxysterols receptor LXR-beta; assay: Agonist activity at recombinant human LXRbeta-LBD expressed in Escherichia coli BL21 (DE3) assessed as peptide D22 recruitment fluorescence polarization binding assay
[3] = biological target: T1, Oxysterols receptor LXR-beta; assay: Binding affinity to recombinant human LXRbeta-LBD expressed in Escherichia coli BL21 (DE3) assessed as dissociation constant incubated for 30 mins by fluorescence polarization binding assay

T1 sequence (P55055 whole entry, the tested form may be a part): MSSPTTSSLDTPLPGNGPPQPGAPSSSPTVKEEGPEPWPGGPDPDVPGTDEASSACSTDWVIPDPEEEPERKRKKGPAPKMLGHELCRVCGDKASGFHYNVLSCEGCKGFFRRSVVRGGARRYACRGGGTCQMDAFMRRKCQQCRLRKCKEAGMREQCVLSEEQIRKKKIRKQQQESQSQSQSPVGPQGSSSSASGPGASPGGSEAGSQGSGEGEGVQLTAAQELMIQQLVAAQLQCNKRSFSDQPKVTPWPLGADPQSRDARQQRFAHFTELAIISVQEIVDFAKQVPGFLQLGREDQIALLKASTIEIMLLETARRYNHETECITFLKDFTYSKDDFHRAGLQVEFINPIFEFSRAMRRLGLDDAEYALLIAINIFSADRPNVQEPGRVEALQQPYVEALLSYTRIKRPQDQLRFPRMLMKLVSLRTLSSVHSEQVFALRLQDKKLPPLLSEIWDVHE

| Structure (SMILES) | Ki [1] | EC50 [2] | Kd [3] |
| --- | --- | --- | --- |
| CCCCOC(=O)c1ccc(O)cc1 [BUTYLPARABEN] | 66 µM | – | – |
| O=C1Nc2ccc(Br)cc2CO1 | > 500 µM | – | – |
| Oc1cccc(Cl)c1 | 184 µM | 519 µM | – |
| CCOC(=O)c1cn2nc[nH]c(=O)c2c1C(C)C | 140 µM | 19 µM | – |
| CC(C)(C)OC(=O)N1Cc2cn[nH]c2C1 | 225 µM | – | – |
| Oc1ccc(Sc2ccc(O)cc2)cc1 | 68 µM | – | – |
| Fc1ccc(-c2c3cccc(C(F)(F)F)c3nn2Cc2ccc(F)cc2Cl)cc1 [LXR-623] | 0.0142 µM | – | – |
| Oc1ccc(Cl)cc1 [PARACHLOROPHENOL] | 169 µM | 514 µM | – |
| CC(=O)c1c(C)ccc2ccccc12 | 153 µM | – | – |
| CCOC(=O)c1ccc(CN(Cc2ccc(-c3cccc(S(C)(=O)=O)c3)cc2)S(=O)(=O)c2c(C)cc(C)cc2C)o1 | 0.352 µM | – | – |

The remaining lines, values ahead:

| Ki [1] | EC50 [2] | Kd [3] | Structure (SMILES) |
| --- | --- | --- | --- |
| 209 µM | – | – | Brc1nn(C2CCCCO2)c2ncccc12 (stereo unspecified) |
| 302 µM | – | – | COC(=O)c1ccc2cc[nH]c2c1 |
| 0.0022 µM | 0.289 µM | – | O=C(O)Cc1cccc(OCCCN(Cc2cccc(C(F)(F)F)c2Cl)CC(c2ccccc2)c2ccccc2)c1 |
| – | – | 0.0489 µM | CC(C)[C@@H]1CN(c2ccc(CO)c(S(C)(=O)=O)c2)CCN1c1ncc(COC(=O)CCCCCNC(=S)Nc2ccc3c(c2)C(=O)OC32c3ccc(O)cc3Oc3cc(O)ccc32)c(C(F)(F)F)n1 |
| 476 µM | 1030 µM | – | COc1ccc(OC)c(Cl)c1 |
| 45 µM | – | – | N#CC[C@H](C1CCCC1)n1cc(-c2ncnc3[nH]ccc23)cn1 [RUXOLITINIB] |
